Tested on: 873145-292-R-J1-PDC complex spheroid viability
Test: Anticancer human tumor 873145-292-R-J1-PDC patient-derived renal clear cell carcinoma cell line growth inhibition [POLQ]
Details: for IC50: curve of first compound; for viability, T/C: stronger effect = lower value
Outline: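 Three-cell-type spheroids modelling solid tumor plus stroma served as the readout system; POL inhibitors were tested individually and in combination, concentration ranges set by clinical Cmax where known.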

[1] = second compound 0.0316 µM, first compound 0.0316 µM
[2] = second compound 0.0316 µM, first compound 0.1 µM
[3] = second compound 0.0316 µM, first compound 0.316 µM
[4] = second compound 0.0316 µM, first compound 1 µM
[5] = second compound 0.0316 µM, first compound 3.16 µM
[6] = second compound 0.0316 µM, first compound 10 µM
[7] = second compound 0.1 µM, first compound 0.0316 µM
[8] = second compound 0.1 µM, first compound 0.1 µM
[9] = second compound 0.1 µM, first compound 0.316 µM
[10] = second compound 0.1 µM, first compound 1 µM
[11] = second compound 0.1 µM, first compound 3.16 µM
[12] = second compound 0.1 µM, first compound 10 µM
[13] = second compound 0.316 µM, first compound 0.0316 µM
[14] = second compound 0.316 µM, first compound 0.1 µM
[15] = second compound 0.316 µM, first compound 0.316 µM
[16] = second compound 0.316 µM, first compound 1 µM
[17] = second compound 0.316 µM, first compound 3.16 µM
[18] = second compound 0.316 µM, first compound 10 µM
[19] = second compound 1 µM, first compound 0.0316 µM
[20] = second compound 1 µM, first compound 0.1 µM
[21] = second compound 1 µM, first compound 0.316 µM
[22] = second compound 1 µM, first compound 1 µM
[23] = second compound 1 µM, first compound 3.16 µM
[24] = second compound 1 µM, first compound 10 µM
[25] = second compound 3.16 µM, first compound 0.0316 µM
[26] = second compound 3.16 µM, first compound 0.1 µM
[27] = second compound 3.16 µM, first compound 0.316 µM
[28] = second compound 3.16 µM, first compound 1 µM
[29] = second compound 3.16 µM, first compound 3.16 µM
[30] = second compound 3.16 µM, first compound 10 µM
[31] = second compound 10 µM, first compound 0.0316 µM
[32] = second compound 10 µM, first compound 0.1 µM
[33] = second compound 10 µM, first compound 0.316 µM
[34] = second compound 10 µM, first compound 1 µM
[35] = second compound 10 µM, first compound 3.16 µM
[36] = second compound 10 µM, first compound 10 µM
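Also: spheroids exposed to compounds for 7 days before viability readout.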
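For viability, T/C in this document: luminescence signal used as surrogate for viable cell content; 100% = DMSO vehicle control viability.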

**Q.** With `COc1cc(C2c3cc4c(cc3C(OC3OC5COC(C)OC5C(O)C3O)C3COC(=O)C23)OCO4)cc(OC)c1O` (centres undefined) + COC1C(OC(N)=O)C(O)C(Oc2ccc3c(O)c(NC(=O)c4ccc(O)c(CC=C(C)C)c4)c(=O)oc3c2C)OC1(C)C as the compound, how does the IC50 (second compound 0.0316 µM) read?
**A.** The IC50 was over 10000 nM.

**Q.** And the IC50 (second compound 0.1 µM)?
**A.** The IC50 was over 10000 nM.

**Q.** And the IC50 (second compound 0.316 µM)?
**A.** Its IC50 is over 10000 nM.

**Q.** What about the IC50 (second compound 1 µM) of the same compound?
**A.** Its IC50 is over 10000 nM.

**Q.** What about the IC50 (second compound 3.16 µM) of the same compound?
**A.** The IC50 was over 10000 nM.

**Q.** And the IC50 (second compound 10 µM)?
**A.** The IC50 was over 10000 nM.

**Q.** What about the viability, T/C [1] of the same compound?
**A.** Its viability, T/C is 104%.

**Q.** What about the viability, T/C [2] of the same compound?
**A.** The viability, T/C was 108%.

**Q.** What about the viability, T/C [3] of the same compound?
**A.** The viability, T/C was 103%.

**Q.** And the viability, T/C [4]?
**A.** Its viability, T/C is 99.1%.

**Q.** What about the viability, T/C [5] of the same compound?
**A.** The viability, T/C was 80.3%.

**Q.** And the viability, T/C [6]?
**A.** The viability, T/C was 57.2%.

**Q.** What about the viability, T/C [7] of the same compound?
**A.** Its viability, T/C is 112%.

**Q.** What about the viability, T/C [8] of the same compound?
**A.** Its viability, T/C is 101%.

**Q.** What about the viability, T/C [9] of the same compound?
**A.** The viability, T/C was 101%.

**Q.** And the viability, T/C [10]?
**A.** The viability, T/C was 96.2%.

**Q.** And the viability, T/C [11]?
**A.** The viability, T/C was 72.5%.

**Q.** What about the viability, T/C [12] of the same compound?
**A.** The viability, T/C was 53.8%.

**Q.** And the viability, T/C [13]?
**A.** Its viability, T/C is 114%.

**Q.** And the viability, T/C [14]?
**A.** Its viability, T/C is 99.4%.

**Q.** What about the viability, T/C [15] of the same compound?
**A.** Its viability, T/C is 100%.

**Q.** And the viability, T/C [16]?
**A.** Its viability, T/C is 87.4%.

**Q.** And the viability, T/C [17]?
**A.** The viability, T/C was 72.9%.

**Q.** And the viability, T/C [18]?
**A.** Its viability, T/C is 54.3%.

**Q.** And the viability, T/C [19]?
**A.** The viability, T/C was 96.2%.

**Q.** And the viability, T/C [20]?
**A.** The viability, T/C was 95.5%.

**Q.** And the viability, T/C [21]?
**A.** Its viability, T/C is 101%.

**Q.** And the viability, T/C [22]?
**A.** Its viability, T/C is 86.2%.

**Q.** And the viability, T/C [23]?
**A.** Its viability, T/C is 79%.

**Q.** What about the viability, T/C [24] of the same compound?
**A.** Its viability, T/C is 53.4%.

**Q.** And the viability, T/C [25]?
**A.** The viability, T/C was 107%.

**Q.** What about the viability, T/C [26] of the same compound?
**A.** The viability, T/C was 106%.

**Q.** And the viability, T/C [27]?
**A.** The viability, T/C was 104%.

**Q.** What about the viability, T/C [28] of the same compound?
**A.** Its viability, T/C is 86.6%.

**Q.** And the viability, T/C [29]?
**A.** The viability, T/C was 70.9%.

**Q.** And the viability, T/C [30]?
**A.** The viability, T/C was 57.7%.

**Q.** And the viability, T/C [31]?
**A.** The viability, T/C was 103%.

**Q.** What about the viability, T/C [32] of the same compound?
**A.** The viability, T/C was 103%.

**Q.** And the viability, T/C [33]?
**A.** Its viability, T/C is 95.5%.

**Q.** What about the viability, T/C [34] of the same compound?
**A.** Its viability, T/C is 94.5%.

**Q.** What about the viability, T/C [35] of the same compound?
**A.** Its viability, T/C is 76.7%.

**Q.** And the viability, T/C [36]?
**A.** The viability, T/C was 67.2%.

**Q.** For `COc1cccc2c1C(=O)c1c(O)c3c(c(O)c1C2=O)CC(O)(C(=O)CO)CC3OC1CC(N)C(O)C(C)O1` (centres undefined) + COC1C(OC(N)=O)C(O)C(Oc2ccc3c(O)c(NC(=O)c4ccc(O)c(CC=C(C)C)c4)c(=O)oc3c2C)OC1(C)C, which IC50 (second compound 0.0316 µM) is on record?
**A.** Its IC50 is 1610 nM.

**Q.** What about the IC50 (second compound 0.1 µM) of the same compound?
**A.** Its IC50 is 1600 nM.

**Q.** And the IC50 (second compound 0.316 µM)?
**A.** Its IC50 is 1510 nM.

**Q.** And the IC50 (second compound 1 µM)?
**A.** Its IC50 is 1400 nM.

**Q.** And the IC50 (second compound 3.16 µM)?
**A.** Its IC50 is 1450 nM.

**Q.** What about the IC50 (second compound 10 µM) of the same compound?
**A.** The IC50 was 1500 nM.

**Q.** And the viability, T/C [1]?
**A.** The viability, T/C was 98.9%.

**Q.** What about the viability, T/C [2] of the same compound?
**A.** The viability, T/C was 92.4%.

**Q.** What about the viability, T/C [3] of the same compound?
**A.** The viability, T/C was 74.9%.

**Q.** What about the viability, T/C [4] of the same compound?
**A.** Its viability, T/C is 81.8%.

**Q.** What about the viability, T/C [5] of the same compound?
**A.** The viability, T/C was 4.46%.

**Q.** What about the viability, T/C [6] of the same compound?
**A.** Its viability, T/C is 4.3%.

**Q.** And the viability, T/C [7]?
**A.** The viability, T/C was 99.5%.

**Q.** What about the viability, T/C [8] of the same compound?
**A.** Its viability, T/C is 91.7%.

**Q.** What about the viability, T/C [9] of the same compound?
**A.** Its viability, T/C is 75.1%.

**Q.** And the viability, T/C [10]?
**A.** Its viability, T/C is 80.8%.

**Q.** What about the viability, T/C [11] of the same compound?
**A.** Its viability, T/C is 5.22%.

**Q.** What about the viability, T/C [12] of the same compound?
**A.** Its viability, T/C is 4.58%.

**Q.** What about the viability, T/C [13] of the same compound?
**A.** Its viability, T/C is 98.1%.

**Q.** And the viability, T/C [14]?
**A.** Its viability, T/C is 84.2%.

**Q.** What about the viability, T/C [15] of the same compound?
**A.** The viability, T/C was 69.3%.

**Q.** And the viability, T/C [16]?
**A.** Its viability, T/C is 74.1%.

**Q.** And the viability, T/C [17]?
**A.** Its viability, T/C is 7.63%.

**Q.** And the viability, T/C [18]?
**A.** The viability, T/C was 3.12%.

**Q.** What about the viability, T/C [19] of the same compound?
**A.** Its viability, T/C is 99.6%.

**Q.** What about the viability, T/C [20] of the same compound?
**A.** The viability, T/C was 78.8%.

**Q.** What about the viability, T/C [21] of the same compound?
**A.** Its viability, T/C is 78.8%.

**Q.** What about the viability, T/C [22] of the same compound?
**A.** The viability, T/C was 68.5%.

**Q.** And the viability, T/C [23]?
**A.** Its viability, T/C is 5.35%.

**Q.** What about the viability, T/C [24] of the same compound?
**A.** The viability, T/C was 3.76%.

**Q.** And the viability, T/C [25]?
**A.** The viability, T/C was 93.3%.

**Q.** What about the viability, T/C [26] of the same compound?
**A.** Its viability, T/C is 79.8%.

**Q.** And the viability, T/C [27]?
**A.** Its viability, T/C is 80.7%.

**Q.** What about the viability, T/C [28] of the same compound?
**A.** Its viability, T/C is 71.1%.

**Q.** What about the viability, T/C [29] of the same compound?
**A.** Its viability, T/C is 5.62%.

**Q.** And the viability, T/C [30]?
**A.** The viability, T/C was 2.42%.

**Q.** What about the viability, T/C [31] of the same compound?
**A.** The viability, T/C was 101%.

**Q.** And the viability, T/C [32]?
**A.** Its viability, T/C is 90.1%.

**Q.** What about the viability, T/C [33] of the same compound?
**A.** The viability, T/C was 78.2%.

**Q.** What about the viability, T/C [34] of the same compound?
**A.** Its viability, T/C is 74.4%.

**Q.** And the viability, T/C [35]?
**A.** Its viability, T/C is 5.66%.

**Q.** And the viability, T/C [36]?
**A.** The viability, T/C was 2.86%.

From PubChem BioAssay AID1963834 (Molecular Pharmacology Branch, DTP, NCI, 2024)
